Experimental data taken from PMC12490239, “Combining BET inhibition with SMAC mimetics restricts tumor growth and triggers immune surveillance in preclinical cancer models” (Cell Reports Medicine, 2025).

Experiments:
Experiment in all cases: cells
Parameters in all cases: CellTiter-Glo 2.0 luminescence proliferation/viability assay, single agents, human tumour cell line panel
KP-3 = conditions: 96 h; single agent; read-out: IC50 SMACm
How it was run: (§1)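 Human tumour cell lines were seeded into assay plates and held at 37°C with 5% CO2 for twenty-four hours, then exposed in triplicate to rising concentrations of the SMAC mimetic, from 4.5 nM to 10 μM, with DMSO as control. After 96 h, viability was read as CellTiter-Glo2.0 luminescence to derive single-agent IC50 values.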

NCI-H1373 = conditions: Homo sapiens, NCI-H1373, 96 h; single agent; read-out: IC50 SMACm
How it was run: as §1

C70 = conditions: 96 h; single agent; read-out: IC50 SMACm
How it was run: as §1

C10 = conditions: 96 h; single agent; read-out: IC50 SMACm
How it was run: as §1

SNU1047 = conditions: 96 h; single agent; read-out: IC50 SMACm
How it was run: as §1

C75 = conditions: 96 h; single agent; read-out: IC50 SMACm
How it was run: as §1

KP-4 = conditions: Homo sapiens, KP-4, 96 h; single agent; read-out: IC50 SMACm
How it was run: as §1

DLD-1 = conditions: Homo sapiens, DLD-1, 96 h; single agent; read-out: IC50 SMACm
How it was run: as §1

HCA24 = conditions: 96 h; single agent; read-out: IC50 SMACm
How it was run: as §1

KM12L4 = conditions: KM 12L4, 96 h; single agent; read-out: IC50 SMACm
How it was run: as §1

LS-123 = conditions: Homo sapiens, LS-123, 96 h; single agent; read-out: IC50 SMACm
How it was run: as §1

NCI-H838 = conditions: Homo sapiens, NCI-H838, 96 h; single agent; read-out: IC50 SMACm
How it was run: as §1

GCIY = conditions: Homo sapiens, GCIY, 96 h; single agent; read-out: IC50 SMACm
How it was run: as §1

SNU977 = conditions: 96 h; single agent; read-out: IC50 SMACm
How it was run: as §1

C80 = conditions: 96 h; single agent; read-out: IC50 SMACm
How it was run: as §1

HT-115 = conditions: HT115, 96 h; single agent; read-out: IC50 SMACm
How it was run: as §1

IC50 (NCI-H1373): > 10 µM | IC50 (SNU1047): 2.79 µM | IC50 (DLD-1): 5.19 µM | IC50 (NCI-H838): 4.18 µM | IC50 (SNU977): 2.88 µM
Structure (SMILES): CN[C@@H](C)C(=O)Nc1ccc(-c2c(-c3cccnc3OC)nc3cc(C)ccn23)c(C#Cc2ccc3c(C)nccc3c2)n1 [SMACm, BI 891065]
IC50 (KP-3): 4.62 µM | IC50 (C70): 3.31 µM | IC50 (C10): 6.47 µM | IC50 (C75): 2.8 µM | IC50 (KP-4): 4.16 µM | IC50 (HCA24): 1.73 µM | IC50 (KM12L4): 4.04 µM | IC50 (LS-123): 4.86 µM | IC50 (GCIY): 4.01 µM | IC50 (C80): 1.81 µM | IC50 (HT-115): 3.87 µM
